Laboratory results as given in patent US20230151003A1, “COMPOUNDS AND METHODS OF USE” (Exelixis, Inc., priority 2020, published 2023).

Legend:
KDR = KDR (Homo sapiens, UniProt P35968); test: KDR autophosphorylation ELISA in HUVEC cells; format: cell-based; set-up: endogenous in cells; host or cells: HUVEC (Lonza #C2519A); settings: Table 3 Cellular Activities, VEGF165-stimulated, phospho-KDR ELISA
Procedure, shortened: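 Serum-starved (24 h) primary HUVEC were pretreated 1 h with compounds (8-point dilution, 0.3% DMSO final), then stimulated 5 min with 100 ng/mL VEGF165. Lysate phospho-KDR quantified by sandwich ELISA against a phospho-KDR standard; IC50 by 4-parameter fit, normalised to stimulated DMSO and unstimulated controls.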

AXL = molecular target: T1, AXL (Homo sapiens, UniProt P30530); test: AXL autophosphorylation ELISA in A-172 cells; format: cell-based; settings: Table 3 Cellular Activities, Gas6-stimulated, phospho-AXL ELISA
T1 construct: endogenous in cells; host or cells: A-172 glioblastoma cells (ATCC #CRL-1620)
T1 sequence (P30530 26-894): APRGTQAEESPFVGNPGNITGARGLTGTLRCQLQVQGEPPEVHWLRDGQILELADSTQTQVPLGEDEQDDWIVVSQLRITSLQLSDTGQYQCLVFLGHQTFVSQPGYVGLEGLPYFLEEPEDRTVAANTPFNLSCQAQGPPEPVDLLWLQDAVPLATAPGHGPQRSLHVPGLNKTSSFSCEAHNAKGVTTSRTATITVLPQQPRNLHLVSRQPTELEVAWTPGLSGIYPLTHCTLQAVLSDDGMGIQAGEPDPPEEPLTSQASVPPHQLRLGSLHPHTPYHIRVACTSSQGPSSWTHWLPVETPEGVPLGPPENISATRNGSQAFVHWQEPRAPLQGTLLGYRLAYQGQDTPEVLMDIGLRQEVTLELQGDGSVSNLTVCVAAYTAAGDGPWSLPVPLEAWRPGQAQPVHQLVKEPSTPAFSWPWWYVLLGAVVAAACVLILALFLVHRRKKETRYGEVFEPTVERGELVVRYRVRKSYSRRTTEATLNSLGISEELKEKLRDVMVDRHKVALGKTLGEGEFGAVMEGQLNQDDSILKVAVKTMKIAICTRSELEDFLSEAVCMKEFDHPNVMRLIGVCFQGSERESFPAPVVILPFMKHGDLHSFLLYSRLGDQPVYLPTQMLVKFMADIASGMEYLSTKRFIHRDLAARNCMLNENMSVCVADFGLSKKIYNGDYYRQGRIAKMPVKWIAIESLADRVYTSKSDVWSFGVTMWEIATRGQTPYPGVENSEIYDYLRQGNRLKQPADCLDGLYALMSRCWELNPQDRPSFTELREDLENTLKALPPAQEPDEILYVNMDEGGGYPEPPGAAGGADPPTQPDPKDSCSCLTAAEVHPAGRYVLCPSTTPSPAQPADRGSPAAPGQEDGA
Procedure, shortened: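 Phospho-AXL in lysates measured by ELISA after Gas6 stimulation (1 μg/mL, 15 min) of A-172 cells pre-incubated 1 h with an 8-point compound dilution series in 0.3% DMSO after 24 h serum starvation. IC50 by 4-parameter logistic fit, with DMSO-treated and reference-inhibitor wells as 100% and 0% activity.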

Chain of KDR (P35968 20-1356): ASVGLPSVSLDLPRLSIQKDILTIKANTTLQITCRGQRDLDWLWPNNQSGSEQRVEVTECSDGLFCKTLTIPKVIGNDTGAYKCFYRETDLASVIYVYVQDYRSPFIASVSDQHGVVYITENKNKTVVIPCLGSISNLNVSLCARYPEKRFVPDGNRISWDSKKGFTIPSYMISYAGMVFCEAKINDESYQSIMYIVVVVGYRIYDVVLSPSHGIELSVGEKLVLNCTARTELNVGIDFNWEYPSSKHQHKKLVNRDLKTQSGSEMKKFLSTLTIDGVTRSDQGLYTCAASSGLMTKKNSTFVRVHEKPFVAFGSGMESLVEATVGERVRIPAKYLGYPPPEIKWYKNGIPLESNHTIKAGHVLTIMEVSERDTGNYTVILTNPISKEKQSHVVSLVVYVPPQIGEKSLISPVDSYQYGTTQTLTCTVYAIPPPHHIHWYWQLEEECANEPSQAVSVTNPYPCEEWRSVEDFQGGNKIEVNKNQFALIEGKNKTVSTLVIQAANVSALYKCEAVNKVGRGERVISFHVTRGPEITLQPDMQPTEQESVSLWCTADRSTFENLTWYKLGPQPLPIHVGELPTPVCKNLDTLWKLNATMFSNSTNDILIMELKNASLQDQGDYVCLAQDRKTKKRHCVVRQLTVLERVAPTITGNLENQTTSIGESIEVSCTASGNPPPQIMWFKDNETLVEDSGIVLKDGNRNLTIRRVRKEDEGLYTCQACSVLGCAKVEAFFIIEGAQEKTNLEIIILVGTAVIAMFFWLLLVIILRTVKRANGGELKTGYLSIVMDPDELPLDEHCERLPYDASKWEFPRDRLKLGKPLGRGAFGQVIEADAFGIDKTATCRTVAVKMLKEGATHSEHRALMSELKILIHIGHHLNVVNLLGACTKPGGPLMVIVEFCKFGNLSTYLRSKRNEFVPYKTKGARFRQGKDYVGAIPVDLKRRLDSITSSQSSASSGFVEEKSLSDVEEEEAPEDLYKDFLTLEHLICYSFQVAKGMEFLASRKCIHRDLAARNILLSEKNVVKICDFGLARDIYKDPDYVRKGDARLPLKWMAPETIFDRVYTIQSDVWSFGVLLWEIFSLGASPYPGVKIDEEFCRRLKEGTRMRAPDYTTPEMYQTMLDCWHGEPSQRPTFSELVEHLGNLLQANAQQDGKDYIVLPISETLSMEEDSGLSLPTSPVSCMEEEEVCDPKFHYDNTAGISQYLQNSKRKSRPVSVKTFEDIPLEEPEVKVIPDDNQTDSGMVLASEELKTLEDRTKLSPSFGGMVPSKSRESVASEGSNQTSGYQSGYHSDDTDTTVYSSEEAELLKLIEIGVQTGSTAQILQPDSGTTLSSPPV

Compound	IC50 (KDR) [µM]	IC50 (AXL) [µM]
C=Cc1ccc(-c2c(C)ncc(C(=O)Nc3ccc(Oc4ccnc5cc(OC)c(OC)nc45)c(F)c3)c2O)o1 [Compound 151, N-[4-[(6,7-Dimethoxy-1,5-naphthyridin-4-yl)oxy]-3-fluorophenyl]-5-(5-ethenylfuran-2-yl)-4-hydroxy-6-methylpyridine-3-carboxamide]	≤ 0.1	≤ 0.1
COc1cc2nccc(Oc3ccc(NC(=O)c4cnc(C)c(-c5ccsc5)c4O)cc3F)c2nc1OC [Compound 93, N-[4-[(6,7-Dimethoxy-1,5-naphthyridin-4-yl)oxy]-3-fluoro-phenyl]-4-hydroxy-6-methyl-5-(3-thienyl)pyridine-3-carboxamide]	≤ 0.1	≤ 0.1
COc1cc2nccc(Oc3ccc(NC(=O)c4cn(CCF)c(C)c(-c5ccsc5)c4=O)cc3F)c2nc1OC [Compound 332, N-[4-[(6,7-Dimethoxy-1,5-naphthyridin-4-yl)oxy]-3-fluorophenyl]-1-(2-fluoroethyl)-6-methyl-4-oxo-5-thiophen-3-ylpyridine-3-carboxamide]	≤ 0.1	≤ 0.1
COc1cnc2c(Oc3ccc(NC(=O)c4cnc(C)c(-c5ccoc5)c4O)cc3F)ccnc2c1 [Compound 99, N-[3-Fluoro-4-[(7-methoxy-1,5-naphthyridin-4-yl)oxy]phenyl]-5-(3-furyl)-4-hydroxy-6-methyl-pyridine-3-carboxamide]	≤ 0.1	≤ 0.1
COc1cc2nccc(Oc3ccc(NC(=O)c4cnc(C)c(-c5cc(C)nn5C)c4O)cc3F)c2nc1OC [Compound 136, N-[4-[(6,7-Dimethoxy-1,5-naphthyridin-4-yl)oxy]-3-fluorophenyl]-5-(2,5-dimethylpyrazol-3-yl)-4-hydroxy-6-methylpyridine-3-carboxamide]	≤ 0.1	0.1 to 0.3
COc1cc2nccc(Oc3ccc(NC(=O)c4c(C)nc(C)c(-c5ccc(C(C)C)o5)c4O)cc3F)c2nc1OC [Compound 148, N-[4-[(6,7-Dimethoxy-1,5-naphthyridin-4-yl)oxy]-3-fluorophenyl]-4-hydroxy-2,6-dimethyl-5-(5-propan-2-ylfuran-2-yl)pyridine-3-carboxamide]	≤ 0.1	≤ 0.1
COc1cc2nccc(Oc3ccc(NC(=O)c4c(C)n(C)c(C)c(-c5ccco5)c4=O)cc3F)c2nc1OC [Compound 160, N-[4-[(6,7-Dimethoxy-1,5-naphthyridin-4-yl)oxy]-3-fluorophenyl]-5-(furan-2-yl)-1,2,6-trimethyl-4-oxopyridine-3-carboxamide]	0.1 to 0.3	≤ 0.1
COc1cc2nccc(Oc3ccc(NC(=O)c4cnc(C)c(-c5ccoc5)c4O)cc3F)c2nc1OC [Compound 95, N-[4-[(6,7-Dimethoxy-1,5-naphthyridin-4-yl)oxy]-3-fluoro-phenyl]-5-(3-furyl)-4-hydroxy-6-methyl-pyridine-3-carboxamide]	≤ 0.1	≤ 0.1
COc1cc2nccc(Oc3cc(F)c(NC(=O)c4c(C)n(C)c(C)c(-c5ccco5)c4=O)cc3F)c2nc1OC [Compound 163, N-[4-[(6,7-Dimethoxy-1,5-naphthyridin-4-yl)oxy]-2,5-difluorophenyl]-5-(furan-2-yl)-1,2,6-trimethyl-4-oxopyridine-3-carboxamide]	0.3 to 1	≤ 0.1
COc1cnc2c(Oc3ccc(NC(=O)c4cnc(C)c(-c5ccco5)c4O)cc3F)ccnc2c1 [Compound 96, N-[3-Fluoro-4-[(7-methoxy-1,5-naphthyridin-4-yl)oxy]phenyl]-5-(2-furyl)-4-hydroxy-6-methyl-pyridine-3-carboxamide]	≤ 0.1	≤ 0.1
COc1cnc2c(Oc3ccc(NC(=O)c4cnc(C)c(-c5ccsc5)c4O)cc3F)ccnc2c1 [Compound 98, N-[3-Fluoro-4-[(7-methoxy-1,5-naphthyridin-4-yl)oxy]phenyl]-4-hydroxy-6-methyl-5-(3-thienyl)pyridine-3-carboxamide]	≤ 0.1	≤ 0.1
COc1cnc2c(Oc3ccc(NC(=O)c4cnc(C)c(-c5ccco5)c4O)cc3)ccnc2c1 [Compound 129, 5-(Furan-2-yl)-4-hydroxy-N-[4-[(7-methoxy-1,5-naphthyridin-4-yl)oxy]phenyl]-6-methylpyridine-3-carboxamide]	≤ 0.1	≤ 0.1
COc1cc2nccc(Oc3ccc(NC(=O)c4c(C)nc(C)c(-c5ccsc5)c4O)cc3F)c2nc1OC [Compound 106]	≤ 0.1	≤ 0.1
COc1cc2nccc(Oc3ccc(NC(=O)c4c(C)nc(C)c(-c5cc(C)cs5)c4O)cc3F)c2nc1OC [Compound 137, N-[4-[(6,7-Dimethoxy-1,5-naphthyridin-4-yl)oxy]-3-fluorophenyl]-4-hydroxy-2,6-dimethyl-5-(4-methylthiophen-2-yl)pyridine-3-carboxamide]	≤ 0.1	≤ 0.1
COc1cc2nccc(Oc3ccc(NC(=O)c4cnc(C)c(-c5cccs5)c4O)cc3F)c2nc1OC [Compound 90, N-[4-[(6,7-Dimethoxy-1,5-naphthyridin-4-yl)oxy]-3-fluoro-phenyl]-4-hydroxy-6-methyl-5-(2-thienyl)pyridine-3-carboxamide]	≤ 0.1	≤ 0.1
C=C(C)c1ccc(-c2c(C)ncc(C(=O)Nc3ccc(Oc4ccnc5cc(OC)c(OC)nc45)c(F)c3)c2O)o1 [Compound 152, N-[4-[(6,7-Dimethoxy-1,5-naphthyridin-4-yl)oxy]-3-fluorophenyl]-4-hydroxy-6-methyl-5-(5-prop-1-en-2-ylfuran-2-yl)pyridine-3-carboxamide]	≤ 0.1	0.1 to 0.3
COc1cc2nccc(Oc3ccc(NC(=O)c4c(C)nc(C)c(-c5ccc(C6CC6)o5)c4O)cc3F)c2nc1OC [Compound 155B, 5-(5-Cyclopropylfuran-2-yl)-N-[4-[(6,7-dimethoxy-1,5-naphthyridin-4-yl)oxy]-3-fluorophenyl]-4-hydroxy-2,6-dimethylpyridine-3-carboxamide]	≤ 0.1	≤ 0.1
COc1cc2nccc(Oc3ccc(NC(=O)c4c(C)nc(C)c(-c5ccnn5C)c4O)cc3F)c2nc1OC [Compound 108, N-[4-[(6,7-Dimethoxy-1,5-naphthyridin-4-yl)oxy]-3-fluoro-phenyl]-4-hydroxy-2,6-dimethyl-5-(2-methylpyrazol-3-yl) pyridine-3-carboxamide]	≤ 0.1	≤ 0.1
COc1cnc2c(Oc3ccc(NC(=O)c4cnc(C)c(-c5cc(C)cs5)c4O)cc3F)ccnc2c1 [Compound 102, N-[3-Fluoro-4-[(7-methoxy-1,5-naphthyridin-4-yl)oxy]phenyl]-4-hydroxy-6-methyl-5-(4-methyl-2-thienyl) pyridine-3-carboxamide]	≤ 0.1	≤ 0.1
COc1cnc2c(Oc3ccc(NC(=O)c4c(C)n(C)c(C)c(-c5cccs5)c4=O)cc3)ccnc2c1 [Compound 165, N-[4-[(7-Methoxy-1,5-naphthyridin-4-yl)oxy]phenyl]-1,2,6-trimethyl-4-oxo-5-thiophen-2-ylpyridine-3-carboxamide]	0.3 to 1	≤ 0.1
COc1cc2nccc(Oc3ccc(NC(=O)c4c(C)ncc(-c5ccco5)c4O)cc3F)c2nc1OC [Compound 119, N-[4-[(6,7-Dimethoxy-1,5-naphthyridin-4-yl)oxy]-3-fluorophenyl]-5-(furan-2-yl)-4-hydroxy-2-methylpyridine-3-carboxamide]	≤ 0.1	≤ 0.1
COc1cc2nccc(Oc3ccc(NC(=O)c4c(C)ncc(-c5ccc(C)o5)c4O)cc3F)c2nc1OC [Compound 120, N-[4-[(6,7-Dimethoxy-1,5-naphthyridin-4-yl)oxy]-3-fluorophenyl]-4-hydroxy-2-methyl-5-(5-methylfuran-2-yl)pyridine-3-carboxamide]	≤ 0.1	≤ 0.1
COc1cc2nccc(Oc3ccc(NC(=O)c4cnc(C)c(-c5cncs5)c4O)cc3F)c2nc1OC [Compound 141, N-[4-[(6,7-Dimethoxy-1,5-naphthyridin-4-yl)oxy]-3-fluorophenyl]-4-hydroxy-6-methyl-5-(1,3-thiazol-5-yl)pyridine-3-carboxamide]	≤ 0.1	≤ 0.1
